Measurements taken from US20050148661A1 (priority 2002, published 2005).

Key:
[1] = tested on: sodium ion currents; assay: current and voltage clamp on axon isolated from cockroaches (double oil separation technique); format: cell-based; conditions: applied externally; isolated cockroach axon
[2] = tested on: potassium ion currents; assay: as above; format: cell-based; conditions: applied externally; isolated cockroach axon
[3] = clinical study: prevention of the neurotoxicity of oxaliplatin by calcium and magnesium infusion (103 treatments)
[4] = oxalate and ions in plasma and urine of patients treated with oxaliplatin
[5] = tested on: sodium channels; assay: patch clamp in whole cell configuration on DUM neurons; format: cell-based, cockroaches
[6] = clinical cases 1 to 3: oxaliplatin cycles with or without calcium and magnesium infusion
[7] = after a cumulative dose of 750-850 mg/m^2; cited from earlier work
[8] = tested on: calcium channels; assay: electrophysiological study of the effect on calcium channels; format: cell-based, cockroaches
Procedure: An electrophysiological study was carried out in vitro by: • a) current and voltage clamp techniques on axon isolated from cockroaches with the double oil separation technique, • b) patch clamp techniques in whole cell configuration on DUM neurons (dorsal unpair median neuron) from cockroaches (DEA Laurence Gamelin, Etude de la neurotoxicité d'un dérivé du platine, l'oxaliplatine, par une approche électrophysiologique, Paris VII (1999)).
Indeed, BAPTA, a calcium chelator, gave an identical sodium channel inhibition curve. […] This blocking of the sodium channels causes abnormalities in the action potential of the neuron, that is to say neuronal depolarization disorders and potentially disturbances in the transmission of the impulse.

[9] = cited from earlier work
[10] = patients treated with oxaliplatin
[11] = case 3, C6, without calcium and magnesium
[12] = case 3, cycles C3, C4, C5, without calcium and magnesium

## N[C@@H]1CCCC[C@H]1N.O=C([O-])C(=O)[O-].[Pt+2] (relative stereo) [oxaliplatin, 1,2-diamine cyclohexane (trans-1)oxalatoplatinum]
[1]
  modification in the sodium ion currents: no significant modification
[2]
  modification in the potassium ion currents: no significant modification
[3]; after prolonged treatment, even with chronic persistent neuropathy, combined with infusion of calcium and magnesium
  total dose after which oxaliplatin can be reintroduced: up to 780 mg/m^2
[3]; cycle 6, in the absence of calcium and magnesium
  patients with no neurological manifestation: 12%
[3]; group of patients without calcium or magnesium
  discontinuations linked to progression of the disease: 44%
[3]; group without calcium and magnesium
  toxic causes for discontinuation: neuropathy: 56%
[4]; [10]
  oxalate in plasma (normally undetectable): significant concentrations
  plasma concentrations of calcium (total, ionized) and of magnesium (total and overall): without any variation
[4]; within 5 hours following the start of infusion
  calciuria, kaliuria and magnesuria: rise
[4]; within 5 hours following the start of infusion of oxaliplatin
  urinary elimination of oxalate: substantial
[5]; current clamp, whole cell patch clamp, DUM neurons
  amplitude of the action potential over time: reduction in the amplitude of the action potential over time
[5]; voltage clamp, DUM neurons
  plateau of sodium current reduction (inhibition): 60%
[5]; voltage clamp, over 10 minutes
  reduction in the sodium current: 50%
[6]; case 2, cycle 1, 5-FU, folinic acid + oxaliplatin 130 mg/m^2/21 days, no calcium and magnesium
  distal and perioral paresthesia: grade 3
[6]; case 2, cycle 1, no calcium and magnesium
  diarrhea: grade 3
[6]; [11]
  neuropathy, NCI: grade 3
  neuropathy, specific scale: 3
[6]; case 3, after C6, without calcium and magnesium
  duration of the incapacitating neuropathy: 18 months
[6]; case 3, cycles 1 and 2, 5-FU, folinic acid + oxaliplatin 130 mg/m^2/3 weeks without calcium and magnesium
  distal, perioral paresthesia, NCI: grade 2
[6]; case 3, cycles 1 and 2, without calcium and magnesium
  distal, perioral paresthesia, specific scale: grade 1
[6]; [12]
  neuropathy, NCI: grade 2
  neuropathy, specific scale: 2
[7]
  frequency of the grade 3 neuropathy: 15-20%
[8]
  effect on the calcium channels: no significant effect
[9]; FIG. 1
  share penetrating unchanged into the cell: 70%
[9]; first stage of metabolism
  share of oxalate release / dichlorodachplatin formation carried out in the intracellular medium: 70%
  share of oxalate release / dichlorodachplatin formation carried out in the plasma medium: 30%

## O=C(O)CN(CC(=O)O)c1ccccc1OCCOc1ccccc1N(CC(=O)O)CC(=O)O [BAPTA]
[5]; calcium chelator tested
  sodium channel inhibition curve compared with oxaliplatin: identical

## NC1CCCCC1N.[Cl][Pt][Cl] (centres unmarked) [Dach platin, diaminecyclohexaneplatinum]
[5]
  effect of other platinum salts (sodium channels): no effect

## [Ca] [calcium]
[3]; calcium by the oral route
  reduction of risk of neurological manifestations at a distance from oxaliplatin administration: effective

## N.N.O=C([O-])C1(C(=O)[O-])CCC1.[Pt+2] [carboplatin]
[5]
  effect of other platinum salts (sodium channels): no effect

## N.N.[Cl][Pt][Cl] [cisplatin]
[5]
  effect of other platinum salts (sodium channels): no effect
